Assays:
[1] = general description of the commercial UV filter; cited from earlier work
[2] = Interfacial tension (polarity index) of emollients, Tensimat Densimat TD2000; format: physicochemical; settings: interfacial tension oil/water
Source text: The term “polarity index” refers to non-polar or polar oils. Non-polar oils are mainly based on hydrocarbons and lack an electronegative element, such as oxygen. In contrast, polar oils contain heteroatoms that differ in electronegativity, which results in a dipole moment. However, such oils are still insoluble in water, i.e. hydrophob. The polarity index can be determined by measuring the interfacial tension between the respective oil and water.
Interfacial tension of the respective emollients as listed below was measured using a Tensimat Densimat TD2000.

SMILES	absorption maximum [1] [nm]	polarity index [2] [mN/m]
CCCCC(CC)COC(=O)c1ccc(Nc2nc(Nc3ccc(C(=O)NC(C)(C)C)cc3)nc(Nc3ccc(C(=O)OCC(CC)CCCC)cc3)n2)cc1 (centres unmarked) [diethylhexyl-butamidotriazone, 4,4′-[[6-[[4-[[(1,1-dimethylethyl)amino]carbonyl]phenyl]amino]-1,3,5-triazin-2,4-diyl]diimino]bis-benzoic acid-bis(2-ethylhexyl)ester]	310	–
O1[SiH2]O[SiH2]O[SiH2]O[SiH2]O[SiH2]1 (centres unmarked) [cyclopentasiloxane]	–	32

— patent publication US20220151896A1, “EFFICIENT SUNSCREEN COMPOSITIONS WITH DIETHYLAMINO HYDROXYBENZOYL HEXYL BENZOATE AND ORGANIC PARTICULATE UV FILTER” (BASF SE, priority 2019, published 2022)
